US20070149404A1, “Microbicidal compositions” (BASF AKTIENGESELLSCHAFT, priority 2003, published 2007)
Counter-ions that a name gives are not always drawn.

Experiments:
algae = experiment: Efficacy against algal growth on painted plaster surface (BBA MOAT 33); format: cell-based; settings: 0.5% in paint; for MEAN ALGAL GROWTH RATING 28 days / MEAN ALGAL GROWTH RATING 56 days / % Improved after 56 days (algal growth): painted plaster; for MEAN ALGAL GROWTH RATING 28 days / MEAN ALGAL GROWTH RATING 56 days: leached 72 hours, mean of ratings 0-5; for MEAN ALGAL GROWTH RATING 28 days: 28 days after inoculation; for MEAN ALGAL GROWTH RATING 56 days: 56 days after inoculation; for % Improved after 56 days (algal growth): versus unpreserved paint
Protocol: (§1) Testing was performed according to the BS3900 G6 and BBA MOAT 33 methods for evaluation versus fungi and algae, respectively. The methods involve painting a substrate panel with the coating and leaching under running water for 72 hours. The substrates are incubated for 56 days after being inoculated with fungi or algae. Performance is judged by comparing with suitable control samples ie without biocide, a positive control and for fungi with substrate panels that have not been leached.
(§2) Performance rating on painted test substrates (Score of 0, 1 and 2 is considered as a pass) • 0=no growth • 1=trace of growth • 2=growth on 1-10% of test face • 3=growth on 10-30% of test face • 4=growth on 30-70% of test face
(§3) 5=growth on 70-100% of test face.

fungi [1] = experiment: Efficacy against fungal growth on painted wooden surface (BS3900 G6); format: cell-based; settings: 0.5% in paint
Protocol: as §1, §2, §3

Saccharomyces cerevisiae = experiment: Intrinsic activity, microtitre plate method, SC; format: cell-based; design: key: rating 0 = no activity to 5 = biostatic, may be biocide
Protocol: (§4) The chemistries were tested for their activity against a range of organisms via a microtitre plate method. The test organisms were: • ML—Micrococcus luteus • SA—Staphylococcus aureus • EC—Escherichia coli • PA—Pseudomonas aeruginosa • CF—Citrobacter freundii • PM—Proteus mirabilis • CA—Candida albicans • SC—Saccharomyces cerevisiae • AN—Aspergillus niger • PF—Penicillium funiculosum • AA—Alternaria alternata
(§5) Using the following rating scale: • 0=no activity • 1=minimal inhibition • 2=inhibition • 3=clear inhibition • 4=clear inhibition biostatic, may be biocide activity • 5=biostatic, may be biocide activity
(§6) Readings of 4 and possibly 3 were considered to be valid for biocidal applications.

Fungi [2] = experiment: Intrinsic activity, microtitre plate method, mean score over fungi; format: cell-based, CA, SC, AN, PF, AA; settings: performance against organisms/no of organisms, 0 to <3 poor, >3 inhibition, >4 biostasis, biocidal activity
Protocol: as §4, §5, §6

Bacteria = experiment: Intrinsic activity, microtitre plate method, mean score over bacteria; format: cell-based, ML, SA, EC, PA, CF, PM; settings: performance against organisms/no of organisms, 0 to <3 poor, >3 inhibition, >4 biostasis, biocidal activity
Protocol: as §4, §5, §6

Aspergillus niger = experiment: Intrinsic activity, microtitre plate method, AN; format: cell-based; design: key: rating 0 = no activity to 5 = biostatic, may be biocide
Protocol: as §4, §5, §6

Micrococcus luteus = experiment: Intrinsic activity, microtitre plate method, ML; format: cell-based; design: key: rating 0 = no activity to 5 = biostatic, may be biocide
Protocol: as §4, §5, §6

Citrobacter freundii = experiment: Intrinsic activity, microtitre plate method, CF; format: cell-based; design: key: rating 0 = no activity to 5 = biostatic, may be biocide
Protocol: as §4, §5, §6

Proteus mirabilis = experiment: Intrinsic activity, microtitre plate method, PM; format: cell-based; design: key: rating 0 = no activity to 5 = biostatic, may be biocide
Protocol: as §4, §5, §6

Escherichia coli = experiment: Intrinsic activity, microtitre plate method, EC; format: cell-based; design: key: rating 0 = no activity to 5 = biostatic, may be biocide
Protocol: as §4, §5, §6

Alternaria alternata = experiment: Intrinsic activity, microtitre plate method, AA; format: cell-based; design: key: rating 0 = no activity to 5 = biostatic, may be biocide
Protocol: as §4, §5, §6

Pseudomonas aeruginosa = experiment: Intrinsic activity, microtitre plate method, PA; format: cell-based; design: key: rating 0 = no activity to 5 = biostatic, may be biocide
Protocol: as §4, §5, §6

Penicillium funiculosum = experiment: Intrinsic activity, microtitre plate method, PF; format: cell-based; design: key: rating 0 = no activity to 5 = biostatic, may be biocide
Protocol: as §4, §5, §6

Candida albicans = experiment: Intrinsic activity, microtitre plate method, CA; format: cell-based; design: key: rating 0 = no activity to 5 = biostatic, may be biocide
Protocol: as §4, §5, §6

test bacteria and fungi = experiment: Intrinsic activity against bacteria and fungi, microtitre plate method, summary in words; format: cell-based; settings: for Activity against the test bacteria and fungi: 1000 and 500 ppm a.i.; for Spectrum of activity: at both concentrations (1000 and 500 ppm a.i.)
Protocol: as §4, §5, §6

Staphylococcus aureus = experiment: Intrinsic activity, microtitre plate method, SA; format: cell-based; design: key: 0 = no activity to 5 = biostatic, may be biocide activity
Protocol: as §4, §5, §6

fungi [3] = experiment: Efficacy against fungal growth on painted plaster surface (BS3900 G6); format: cell-based; settings: 0.5% in paint
Protocol: as §1, with “The substrates are incubated for 56 days after being inoculated with fungi or algae.” left out
as §2, §3

[4] = constant running water for 72 hours, 28 days, mean of ratings 0-5
[5] = constant running water for 72 hours, 56 days, mean of ratings 0-5
[6] = leached 72 hours, versus unpreserved paint
[7] = no leaching with water, 28 days, mean of ratings 0-5
[8] = no leaching with water, 56 days, mean of ratings 0-5

Compound	SC rating (Saccharomyces cerevisiae; 500 ppm a.i.)	SC rating (Saccharomyces cerevisiae; 1000 ppm a.i.)	Fungi Mean Score (Fungi [2]; 500 ppm a.i.)	Fungi Mean Score (Fungi [2]; 1000 ppm a.i.)	Bacteria Mean Score (Bacteria; 500 ppm a.i.)	Bacteria Mean Score (Bacteria; 1000 ppm a.i.)	AN rating (Aspergillus niger; 500 ppm a.i.)	AN rating (Aspergillus niger; 1000 ppm a.i.)	ML rating (Micrococcus luteus; 500 ppm a.i.)	ML rating (Micrococcus luteus; 1000 ppm a.i.)	CF rating (Citrobacter freundii; 500 ppm a.i.)	CF rating (Citrobacter freundii; 1000 ppm a.i.)	PM rating (Proteus mirabilis; 500 ppm a.i.)	PM rating (Proteus mirabilis; 1000 ppm a.i.)	EC rating (Escherichia coli; 500 ppm a.i.)	EC rating (Escherichia coli; 1000 ppm a.i.)	AA rating (Alternaria alternata; 500 ppm a.i.)	AA rating (Alternaria alternata; 1000 ppm a.i.)	PA rating (Pseudomonas aeruginosa; 500 ppm a.i.)	PA rating (Pseudomonas aeruginosa; 1000 ppm a.i.)	also measured
CCOCn1c(-c2ccc(Cl)cc2)c(C#N)c(Br)c1C(F)(F)F [Chlorfenapyr, 4-Brom-2-(p-chlorphenyl)-1-(ethoxymethyl)-5-(tri-fluormethyl)-pyrrole-3-carbonitril]																					MEAN ALGAL GROWTH RATING 28 days (algae): 3 (3=growth on 10-30% of test face); MEAN ALGAL GROWTH RATING 56 days (algae): 3.5; % Improved after 56 days (algal growth) (algae): 12.5%; Improvement against algal growth on the plaster surface (algae): exhibited an improvement; Improvement against fungal growth on the wood surface (fungi [1]): exhibited an improvement; MEAN FUNGAL GROWTH RATING - WOOD SUBSTRATE 28 days leached (fungi [1]; [4]): 3 (3=growth on 10-30% of test face); MEAN FUNGAL GROWTH RATING - WOOD SUBSTRATE 56 days leached (fungi [1]; [5]): 3.5; % Improved After 56 days leached (fungal, wood) (fungi [1]; [6]): 12.5%; MEAN FUNGAL GROWTH RATING - WOOD SUBSTRATE 28 days as applied (fungi [1]; [7]): 5 (5=growth on 70-100% of test face); MEAN FUNGAL GROWTH RATING - WOOD SUBSTRATE 56 days as applied (fungi [1]; [8]): 5 (5=growth on 70-100% of test face)
CC(Oc1ccc(Cl)cc1Cl)C(=O)O (stereo not shown) [Dichlorprop, 2,4-Dichlorophenoxy-propionic acid]	1	5	3.6	5.0	3.3	5.0	5	5	5	5	3	5	3	5	3	5	5	5	3	5	PF rating (Penicillium funiculosum; 500 ppm a.i.): 5; PF rating (Penicillium funiculosum; 1000 ppm a.i.): 5; CA rating (Candida albicans; 500 ppm a.i.): 2; CA rating (Candida albicans; 1000 ppm a.i.): 5; Activity against the test bacteria and fungi (test bacteria and fungi): good activity; SA rating (Staphylococcus aureus; 500 ppm a.i.): 3; SA rating (Staphylococcus aureus; 1000 ppm a.i.): 5
CCCCCCCCCCCCNC(=N)N [Dodine, 1-dodecylguanidinium hydrochloride or—acetate]	5	5	5.0	5.0	4.3	4.7	5	5	5	5	5	5	5	5	5	5	5	5	1	3	PF rating (Penicillium funiculosum; 500 ppm a.i.): 5; PF rating (Penicillium funiculosum; 1000 ppm a.i.): 5; CA rating (Candida albicans; 500 ppm a.i.): 5; CA rating (Candida albicans; 1000 ppm a.i.): 5; Activity against the test bacteria and fungi (test bacteria and fungi): good activity; SA rating (Staphylococcus aureus; 500 ppm a.i.): 5; SA rating (Staphylococcus aureus; 1000 ppm a.i.): 5
Fc1ccc([C@@]2(Cn3cncn3)O[C@H]2c2ccccc2Cl)cc1 [Epoxiconazole, cis-3-(2-Chlorphenyl)-2-(4-fluorphenyl)-2-(triazol-1-ylmethyl)-oxiran]	5	5	4.6	4.6	0.0	0.0	5	5	0	0	0	0	0	0	0	0	5	5	0	0	MEAN ALGAL GROWTH RATING 28 days (algae): 2.5; MEAN ALGAL GROWTH RATING 56 days (algae): 2.5; % Improved after 56 days (algal growth) (algae): 37.5%; Improvement against algal growth on the plaster surface (algae): exhibited an improvement; PF rating (Penicillium funiculosum; 500 ppm a.i.): 3; PF rating (Penicillium funiculosum; 1000 ppm a.i.): 3; CA rating (Candida albicans; 500 ppm a.i.): 5; CA rating (Candida albicans; 1000 ppm a.i.): 5; Improvement against fungal growth on the wood surface (fungi [1]): only showed marginal improvement; Improvement against fungal growth on the plaster surface (fungi [3]; as applied or after leaching): exhibited an improvement; MEAN FUNGAL GROWTH RATING - PLASTER SUBSTRATE 28 days leached (fungi [3]; [4]): 1.5; MEAN FUNGAL GROWTH RATING - PLASTER SUBSTRATE 56 days leached (fungi [3]; [5]): 2.5; % Improved After 56 days leached (fungal, plaster) (fungi [3]; [6]): 29%; MEAN FUNGAL GROWTH RATING - PLASTER SUBSTRATE 28 days as applied (fungi [3]; [7]): 3.5; MEAN FUNGAL GROWTH RATING - PLASTER SUBSTRATE 56 days as applied (fungi [3]; [8]): 3.5; % Improved After 56 days as applied (fungal, plaster) (fungi [3]; no leaching, versus unpreserved paint): 30%; Spectrum of activity (test bacteria and fungi): only display antifungal activity; SA rating (Staphylococcus aureus; 500 ppm a.i.): 0; SA rating (Staphylococcus aureus; 1000 ppm a.i.): 0
(1RS, 5RS;1RS, 5SR)-5- (4-chlorobenzyl)-2,2-di- methyl-1-(1H-1,2,4-tri- azol-1-ylmethyl)cyclo- pentanol [Metconazole]	3	3	4.2	4.2	0.5	0.7	5	5	2	3	0	0	0	0	0	0	5	5	0	0	PF rating (Penicillium funiculosum; 500 ppm a.i.): 5; PF rating (Penicillium funiculosum; 1000 ppm a.i.): 5; CA rating (Candida albicans; 500 ppm a.i.): 3; CA rating (Candida albicans; 1000 ppm a.i.): 3; Spectrum of activity (test bacteria and fungi): only display antifungal activity; SA rating (Staphylococcus aureus; 500 ppm a.i.): 1; SA rating (Staphylococcus aureus; 1000 ppm a.i.): 1
